Values after ≈ are worked out from the molar mass of the structure shown.

One test concerns Enterococcus faecium. Nature of the test: In vitro antibacterial activity against Enterococcus faecium C6301 (E.f.2). Type of test: functional.
`CC(=O)NC[C@H]1CN(c2ccc(N3CCN(Cc4cc(-c5ccc(Cl)cc5)no4)CC3)c(F)c2)C(=O)O1` displayed an MIC of 32 µg/mL (≈ 60.6 µM).

Compound `CC(=O)NC[C@H]1CN(c2ccc(N3CCN(C(=O)c4cc(C(N)=O)no4)CC3)c(F)c2)C(=O)O1` registered an MIC of 1 µg/mL (≈ 2.11 µM).

`CC(=O)NC[C@H]1CN(c2ccc(N3CCN(C(=O)c4cc(C#N)no4)CC3)c(F)c2)C(=O)O1` showed an MIC of 1 µg/mL (≈ 2.19 µM).

As for `CC(=O)NC[C@H]1CN(c2ccc(N3CCN(C(=O)c4cc(-c5csnn5)no4)CC3)c(F)c2)C(=O)O1`, the minimal inhibitory concentration (MIC) amounted to 1 µg/mL (≈ 1.94 µM).

In turn, `CC(=O)NC[C@H]1CN(c2ccc(N3CCN(Cc4cc(-c5ccc(C)cc5)no4)CC3)c(F)c2)C(=O)O1` gave an MIC of 8 µg/mL (≈ 15.8 µM).

A further test has as its system Enterococcus faecium. Put plainly: In vitro antibacterial activity against vancomycin-resistant Enterococcus faecium C6487 (VRE). In kind it is functional.
Take `CC(=O)NC[C@H]1CN(c2ccc(N3CCN(Cc4cc(-c5ccc(Cl)cc5)no4)CC3)c(F)c2)C(=O)O1`: the lowest concentration to inhibit growth (MIC) was 32 µg/mL (≈ 60.6 µM).

The compound `CC(=O)NC[C@H]1CN(c2ccc(N3CCN(C(=O)c4cc(C(N)=O)no4)CC3)c(F)c2)C(=O)O1` registered an MIC of 1 µg/mL (≈ 2.11 µM). This MIC lies about 32-fold lower than the previous one.

Regarding `CC(=O)NC[C@H]1CN(c2ccc(N3CCN(C(=O)c4cc(C#N)no4)CC3)c(F)c2)C(=O)O1`, inhibition of growth (MIC) required 1 µg/mL (≈ 2.19 µM).

On to `CC(=O)NC[C@H]1CN(c2ccc(N3CCN(C(=O)c4cc(-c5csnn5)no4)CC3)c(F)c2)C(=O)O1`, for which the MIC stood at 1 µg/mL (≈ 1.94 µM).

Consider `CC(=O)NC[C@H]1CN(c2ccc(N3CCN(Cc4cc(-c5ccc(C)cc5)no4)CC3)c(F)c2)C(=O)O1`, for which the MIC was 8 µg/mL (≈ 15.8 µM). This MIC lies about 8-fold higher than the previous one.

The subject of another test is Enterococcus faecalis. Put plainly: In vitro antibacterial activity against Enterococcus faecalis C6291 (E.f.1). Type of test: functional.
`CC(=O)NC[C@H]1CN(c2ccc(N3CCN(Cc4cc(-c5ccc(Cl)cc5)no4)CC3)c(F)c2)C(=O)O1`: the minimal inhibitory concentration (MIC) is more than 32 µg/mL.

Take `CC(=O)NC[C@H]1CN(c2ccc(N3CCN(C(=O)c4cc(C(N)=O)no4)CC3)c(F)c2)C(=O)O1`: the MIC amounted to 1 µg/mL (≈ 2.11 µM).

With `CC(=O)NC[C@H]1CN(c2ccc(N3CCN(C(=O)c4cc(C#N)no4)CC3)c(F)c2)C(=O)O1`, the lowest concentration to inhibit growth (MIC) was 2 µg/mL (≈ 4.38 µM).

`CC(=O)NC[C@H]1CN(c2ccc(N3CCN(C(=O)c4cc(-c5csnn5)no4)CC3)c(F)c2)C(=O)O1` came in with a minimum inhibitory concentration (MIC) of 1 µg/mL (≈ 1.94 µM). Compared with the last compound, the MIC is about 2-fold lower.

In turn, `CC(=O)NC[C@H]1CN(c2ccc(N3CCN(Cc4cc(-c5ccc(C)cc5)no4)CC3)c(F)c2)C(=O)O1` gave an MIC of 16 µg/mL (≈ 31.5 µM).

The subject of the next test is Staphylococcus epidermidis. Put plainly: In vitro antibacterial activity against Staphylococcus epidermis (S.e.1) […]. In kind it is functional.
Compound `CC(=O)NC[C@H]1CN(c2ccc(N3CCN(Cc4cc(-c5ccc(Cl)cc5)no4)CC3)c(F)c2)C(=O)O1` returned an MIC of 16 µg/mL (≈ 30.3 µM).

`CC(=O)NC[C@H]1CN(c2ccc(N3CCN(C(=O)c4cc(C(N)=O)no4)CC3)c(F)c2)C(=O)O1` had an MIC of 0.5 µg/mL (≈ 1.05 µM). Compared with the last compound, the MIC is about 32-fold lower.

`CC(=O)NC[C@H]1CN(c2ccc(N3CCN(C(=O)c4cc(C#N)no4)CC3)c(F)c2)C(=O)O1` registered a minimal inhibitory concentration (MIC) of 0.5 µg/mL (≈ 1.1 µM).

The compound `CC(=O)NC[C@H]1CN(c2ccc(N3CCN(C(=O)c4cc(-c5csnn5)no4)CC3)c(F)c2)C(=O)O1` showed a minimal inhibitory concentration (MIC) of 0.5 µg/mL (≈ 0.97 µM).

In turn, `CC(=O)NC[C@H]1CN(c2ccc(N3CCN(Cc4cc(-c5ccc(C)cc5)no4)CC3)c(F)c2)C(=O)O1` returned an MIC of 4 µg/mL (≈ 7.88 µM).

A further test deals with Staphylococcus epidermidis. Nature of the test: In vitro antibacterial activity against Staphylococcus epidermis (S.e.2) C2235. Type of test: functional.
In turn, `CC(=O)NC[C@H]1CN(c2ccc(N3CCN(Cc4cc(-c5ccc(Cl)cc5)no4)CC3)c(F)c2)C(=O)O1` displayed an MIC of 32 µg/mL (≈ 60.6 µM).

Compound `CC(=O)NC[C@H]1CN(c2ccc(N3CCN(C(=O)c4cc(C(N)=O)no4)CC3)c(F)c2)C(=O)O1` showed a minimum inhibitory concentration (MIC) of 0.5 µg/mL (≈ 1.05 µM).

For the compound `CC(=O)NC[C@H]1CN(c2ccc(N3CCN(C(=O)c4cc(C#N)no4)CC3)c(F)c2)C(=O)O1`, the MIC was determined as 0.5 µg/mL (≈ 1.1 µM).

For `CC(=O)NC[C@H]1CN(c2ccc(N3CCN(C(=O)c4cc(-c5csnn5)no4)CC3)c(F)c2)C(=O)O1`, inhibition of growth (MIC) required 1 µg/mL (≈ 1.94 µM). This MIC lies about 2-fold higher than the previous one.

In the case of `CC(=O)NC[C@H]1CN(c2ccc(N3CCN(Cc4cc(-c5ccc(C)cc5)no4)CC3)c(F)c2)C(=O)O1`, the MIC was 8 µg/mL (≈ 15.8 µM).

The test system of another test is Staphylococcus aureus. Nature of the test: In vitro antibacterial activity against ciprofloxacin-resistant Staphylococcus aureus (CRSA) C6043. Type of test: functional.
On to `CC(=O)NC[C@H]1CN(c2ccc(N3CCN(Cc4cc(-c5ccc(Cl)cc5)no4)CC3)c(F)c2)C(=O)O1`, for which the MIC was more than 32 µg/mL.

`CC(=O)NC[C@H]1CN(c2ccc(N3CCN(C(=O)c4cc(C(N)=O)no4)CC3)c(F)c2)C(=O)O1` displayed a minimum inhibitory concentration (MIC) of 2 µg/mL (≈ 4.22 µM).

Regarding `CC(=O)NC[C@H]1CN(c2ccc(N3CCN(C(=O)c4cc(C#N)no4)CC3)c(F)c2)C(=O)O1`, the MIC amounted to 2 µg/mL (≈ 4.38 µM).

`CC(=O)NC[C@H]1CN(c2ccc(N3CCN(C(=O)c4cc(-c5csnn5)no4)CC3)c(F)c2)C(=O)O1`: the MIC worked out at 2 µg/mL (≈ 3.88 µM).

As for `CC(=O)NC[C@H]1CN(c2ccc(N3CCN(Cc4cc(-c5ccc(C)cc5)no4)CC3)c(F)c2)C(=O)O1`, the minimum inhibitory concentration (MIC) turned out to be 32 µg/mL (≈ 63 µM).

The subject of another test is Staphylococcus aureus. Put plainly: In vitro antibacterial activity against Staphylococcus aureus (S. a.) ATCC 29213. In kind it is functional.
On to `CC(=O)NC[C@H]1CN(c2ccc(N3CCN(Cc4cc(-c5ccc(Cl)cc5)no4)CC3)c(F)c2)C(=O)O1`, for which the MIC was more than 32 µg/mL.

Compound `CC(=O)NC[C@H]1CN(c2ccc(N3CCN(C(=O)c4cc(C(N)=O)no4)CC3)c(F)c2)C(=O)O1` gave an MIC of 2 µg/mL (≈ 4.22 µM).

As to `CC(=O)NC[C@H]1CN(c2ccc(N3CCN(C(=O)c4cc(C#N)no4)CC3)c(F)c2)C(=O)O1`, inhibition of growth (MIC) required 2 µg/mL (≈ 4.38 µM).

On to `CC(=O)NC[C@H]1CN(c2ccc(N3CCN(C(=O)c4cc(-c5csnn5)no4)CC3)c(F)c2)C(=O)O1`, for which the MIC is 2 µg/mL (≈ 3.88 µM).

`CC(=O)NC[C@H]1CN(c2ccc(N3CCN(Cc4cc(-c5ccc(C)cc5)no4)CC3)c(F)c2)C(=O)O1` came in with a minimum inhibitory concentration (MIC) of 32 µg/mL (≈ 63 µM). This MIC lies about 16-fold higher than the previous one.

In another test the test system is Staphylococcus aureus. Nature of the test: In vitro antibacterial activity against methicillin-resistant Staphylococcus aureus (MRSA) C6068. Type of test: functional.
Compound `CC(=O)NC[C@H]1CN(c2ccc(N3CCN(Cc4cc(-c5ccc(Cl)cc5)no4)CC3)c(F)c2)C(=O)O1` showed a minimum inhibitory concentration (MIC) of 16 µg/mL (≈ 30.3 µM).

On to `CC(=O)NC[C@H]1CN(c2ccc(N3CCN(C(=O)c4cc(C(N)=O)no4)CC3)c(F)c2)C(=O)O1`, for which the minimal inhibitory concentration (MIC) turned out to be 1 µg/mL (≈ 2.11 µM). Against the preceding compound, the MIC is about 16-fold lower.

In turn, `CC(=O)NC[C@H]1CN(c2ccc(N3CCN(C(=O)c4cc(C#N)no4)CC3)c(F)c2)C(=O)O1` returned an MIC of 1 µg/mL (≈ 2.19 µM).

Turning to `CC(=O)NC[C@H]1CN(c2ccc(N3CCN(C(=O)c4cc(-c5csnn5)no4)CC3)c(F)c2)C(=O)O1`, the MIC was determined as 1 µg/mL (≈ 1.94 µM).

For `CC(=O)NC[C@H]1CN(c2ccc(N3CCN(Cc4cc(-c5ccc(C)cc5)no4)CC3)c(F)c2)C(=O)O1`, it took 8 µg/mL (≈ 15.8 µM) to inhibit growth (MIC).

The subject of a further test is Staphylococcus aureus. Put plainly: In vitro antibacterial activity against methicillin-susceptible Staphylococcus aureus (MSSA) C2214. In kind it is functional.
With `CC(=O)NC[C@H]1CN(c2ccc(N3CCN(Cc4cc(-c5ccc(Cl)cc5)no4)CC3)c(F)c2)C(=O)O1`, the minimum inhibitory concentration (MIC) amounted to 32 µg/mL (≈ 60.6 µM).

`CC(=O)NC[C@H]1CN(c2ccc(N3CCN(C(=O)c4cc(C(N)=O)no4)CC3)c(F)c2)C(=O)O1`: the MIC is 2 µg/mL (≈ 4.22 µM).

`CC(=O)NC[C@H]1CN(c2ccc(N3CCN(C(=O)c4cc(C#N)no4)CC3)c(F)c2)C(=O)O1` showed an MIC of 2 µg/mL (≈ 4.38 µM).

As to `CC(=O)NC[C@H]1CN(c2ccc(N3CCN(C(=O)c4cc(-c5csnn5)no4)CC3)c(F)c2)C(=O)O1`, it took 2 µg/mL (≈ 3.88 µM) to inhibit growth (MIC).

`CC(=O)NC[C@H]1CN(c2ccc(N3CCN(Cc4cc(-c5ccc(C)cc5)no4)CC3)c(F)c2)C(=O)O1` had an MIC of 32 µg/mL (≈ 63 µM).

Another test concerns Streptococcus pyogenes. Nature of the test: In vitro antibacterial activity against Streptococcus pyogenes ATCC 8668 (S.p.1). In kind it is functional.
As to `CC(=O)NC[C@H]1CN(c2ccc(N3CCN(Cc4cc(-c5ccc(Cl)cc5)no4)CC3)c(F)c2)C(=O)O1`, the MIC came to 4 µg/mL (≈ 7.58 µM).

`CC(=O)NC[C@H]1CN(c2ccc(N3CCN(C(=O)c4cc(C(N)=O)no4)CC3)c(F)c2)C(=O)O1` had an MIC of 0.25 µg/mL (≈ 0.527 µM).

In the case of `CC(=O)NC[C@H]1CN(c2ccc(N3CCN(C(=O)c4cc(C#N)no4)CC3)c(F)c2)C(=O)O1`, the MIC stood at 0.25 µg/mL (≈ 0.548 µM).

Take `CC(=O)NC[C@H]1CN(c2ccc(N3CCN(C(=O)c4cc(-c5csnn5)no4)CC3)c(F)c2)C(=O)O1`: the minimum inhibitory concentration (MIC) worked out at 0.5 µg/mL (≈ 0.97 µM). This MIC lies about 2-fold higher than the previous one.

The compound `CC(=O)NC[C@H]1CN(c2ccc(N3CCN(Cc4cc(-c5ccc(C)cc5)no4)CC3)c(F)c2)C(=O)O1` showed an MIC of 4 µg/mL (≈ 7.88 µM). This MIC lies about 8-fold higher than the previous one.

Another test deals with Streptococcus pyogenes. Put plainly: In vitro antibacterial activity against Streptococcus pyogenes C6003 (S.p.2). Type of test: functional.
As to `CC(=O)NC[C@H]1CN(c2ccc(N3CCN(Cc4cc(-c5ccc(Cl)cc5)no4)CC3)c(F)c2)C(=O)O1`, 4 µg/mL (≈ 7.58 µM) was the least that counted as inhibitory (MIC).

In turn, `CC(=O)NC[C@H]1CN(c2ccc(N3CCN(C(=O)c4cc(C(N)=O)no4)CC3)c(F)c2)C(=O)O1` yielded an MIC of 0.25 µg/mL (≈ 0.527 µM).

Regarding `CC(=O)NC[C@H]1CN(c2ccc(N3CCN(C(=O)c4cc(C#N)no4)CC3)c(F)c2)C(=O)O1`, the minimal inhibitory concentration (MIC) came out at 0.25 µg/mL (≈ 0.548 µM).

For the compound `CC(=O)NC[C@H]1CN(c2ccc(N3CCN(C(=O)c4cc(-c5csnn5)no4)CC3)c(F)c2)C(=O)O1`, 0.5 µg/mL (≈ 0.97 µM) was the least that counted as inhibitory (MIC).

For `CC(=O)NC[C@H]1CN(c2ccc(N3CCN(Cc4cc(-c5ccc(C)cc5)no4)CC3)c(F)c2)C(=O)O1`, inhibition of growth (MIC) required 4 µg/mL (≈ 7.88 µM).
